Minimal effective concentration data for 17 molecules are collected here from patent publication US10570129B2 (Zoetis Services LLC, priority 2015, dated 2020).

The test system of assay [1] is Haemonchus contortus L3. The experiment in a line: microbe, parasite or virus in culture. In kind it is cell-based. The settings on record: Haemonchus contortus, 96 h, read-out: HcL3 Minimal Effective Concentration (MEC).
In assay [2] the test system is D. immitis microfilariae. The experiment in a line: Dirofilaria immitis, microfilariae (DiMF) in vitro motility assay. In kind it is cell-based. The settings on record: Dirofilaria immitis, 72 h, read-out: DiMF minimally effective dose (MEC).

Structures are written as SMILES.

Consider `CCOc1ccc2c(c1)c1c(n2C(=O)NCc2ccnc(Cl)c2)CCN(C/C=C/c2ccc(Cl)cc2)C1` [Example 513, (E)-2-(3-(4-chlorophenyl)allyl)-N-((2-chloropyridin-4-yl)methyl)-8-ethoxy-1,2,3,4-tetrahydro-5H-pyrido[4,3-b]indole-5-carboxamide], for which the minimal effective concentration in assay [1] came to 7.6 µM; in assay [2] it was 3.3 µM.
In the case of `O=C(NCc1ccnc(Cl)c1)n1c2c(c3ccc(OC(F)(F)F)cc31)CN(C/C=C/c1ccc(Br)cc1F)CC2` [Example 338, (E)-2-(3-(4-bromo-2-fluorophenyl)allyl)-N-((2-chloropyridin-4-yl)methyl)-7-(trifluoromethoxy)-1,2,3,4-tetrahydro-5H-pyrido[4,3-b]indole-5-carboxamide], the minimal effective concentration in assay [1] stood at 0.3 µM; in assay [2], 10 µM.
As for `N#Cc1ccc2c(c1)c1c(n2C(=O)NCc2ccnc(F)c2)CCN(C/C=C/c2cccc(F)c2F)C1` [Example 119, (E)-8-cyano-2-(3-(2,3-difluorophenyl)allyl)-N-((2-fluoropyridin-4-yl)methyl)-1,2,3,4-tetrahydro-5H-pyrido[4,3-b]indole-5-carboxamide], the minimal effective concentration in assay [1] came to 3.3 µM; in assay [2], 18.2 µM.
As to `N#Cc1ccc2c(c1)c1c(n2C(=O)NCc2ccnc(Cl)c2)CCN(C/C=C/c2cc(F)ccc2Br)C1` [Example 77, (E)-2-(3-(2-bromo-5-fluorophenyl)allyl)-N-((2-chloropyridin-4-yl)methyl)-8-cyano-1,2,3,4-tetrahydro-5H-pyrido[4,3-b]indole-5-carboxamide], the minimal effective concentration in assay [1] is 0.3 µM; in assay [2], above 100 µM.
The like results for `O=C(NCc1ccnc(Cl)c1)n1c2c(c3cc(N4CCCC4)ccc31)CN(C/C=C/c1ccc(Cl)c(F)c1)CC2` [Example 506, (E)-2-(3-(4-chloro-3-fluorophenyl)allyl)-N-((2-chloropyridin-4-yl)methyl)-8-(pyrrolidin-1-yl)-1,2,3,4-tetrahydro-5H-pyrido[4,3-b]indole-5-carboxamide] were, in that order, 7.6 µM and above 100 µM.
In the case of `O=C(NCc1ccnc(Cl)c1)n1c2c(c3c(F)cc(C(F)(F)F)cc31)CN(C/C=C/c1ccc(F)cc1)CC2` [Example 325, (E)-N-((2-chloropyridin-4-yl)methyl)-9-fluoro-2-(3-(4-fluorophenyl)allyl)-7-(trifluoromethyl)-1,2,3,4-tetrahydro-5H-pyrido[4,3-b]indole-5-carboxamide], the minimal effective concentration was determined as 3.3 µM in assay [1] and 7.6 µM in assay [2].
As to `N#Cc1ccc2c3c(n(C(=O)NCc4ccnc(Cl)c4)c2c1)CCN(C/C=C/c1ccc(F)c(Br)c1)C3` [Example 12, (E)-2-(3-(3-bromo-4-fluorophenyl)allyl)-N-((2-chloropyridin-4-yl)methyl)-7-cyano-1,2,3,4-tetrahydro-5H-pyrido[4,3-b]indole-5-carboxamide], the minimal effective concentration in assay [1] was 1.8 µM; in assay [2] it was 18.2 µM.
On to `O=C(NCc1ccnc(Cl)c1)n1c2c(c3cc(Cl)ccc31)CN(C/C=C/c1ccc(OC(F)(F)F)cc1)CC2` [Example 245, (E)-8-chloro-N-((2-chloropyridin-4-yl)methyl)-2-(3-(4-(trifluoromethoxy)-phenyl)allyl)-1,2,3,4-tetrahydro-5H-pyrido[4,3-b]indole-5-carboxamide], for which the minimal effective concentration in assay [1] was determined as 3.3 µM; in assay [2], 11.9 µM.
Regarding `N#Cc1ccc2c(c1)c1c(n2C(=O)NCc2ccnc(Cl)c2)CCN(C/C=C/c2ccc(Cl)c(Cl)c2)C1` [Example 93, (E)-N-((2-chloropyridin-4-yl)methyl)-8-cyano-2-(3-(3,4-dichlorophenyl)allyl)-1,2,3,4-tetrahydro-5H-pyrido[4,3-b]indole-5-carboxamide], the minimal effective concentration in assay [1] was 0.7 µM; in assay [2], 2.4 µM.
With `O=C(NCc1cnc(Cl)s1)n1c2c(c3ccc(OC(F)(F)F)cc31)CN(C/C=C/c1ccc(Cl)cc1)CC2` [Example 382, (E)-2-(3-(4-chlorophenyl)allyl)-N-((2-chlorothiazol-5-yl)methyl)-7-(trifluoromethoxy)-1,2,3,4-tetrahydro-5H-pyrido[4,3-b]indole-5-carboxamide], the values for the minimal effective concentration in assay [1] and in assay [2] were 3.3 µM and 10 µM, respectively.
Consider `O=C(NCc1ccnc(Cl)c1)n1c2c(c3cccc(Cl)c31)CN(C/C=C/c1ccc(OC(F)(F)F)cc1)CC2` [Example 271, (E)-6-chloro-N-((2-chloropyridin-4-yl)methyl)-2-(3-(4-(trifluoromethoxy)-phenyl)allyl)-1,2,3,4-tetrahydro-5H-pyrido[4,3-b]indole-5-carboxamide], for which the minimal effective concentration was above 100 µM in assay [1] and 5.7 µM in assay [2].
The corresponding values for `O=C(NCc1ccnc(Cl)c1)n1c2c(c3cc(F)c(Cl)cc31)CN(C/C=C/c1ccc(F)cc1F)CC2` [Example 299, (E)-7-chloro-N-((2-chloropyridin-4-yl)methyl)-2-(3-(2,4-difluorophenyl)-allyl)-8-fluoro-1,2,3,4-tetrahydro-5H-pyrido[4,3-b]indole-5-carboxamide] are 0.4 µM and 1.8 µM.
The corresponding values for `N#Cc1ccc2c(c1)c1c(n2C(=O)NCc2ccnc(Cl)c2)CCN(C/C=C/c2ccc(Cl)c(F)c2)C1` [Example 72, (E)-2-(3-(4-chloro-3-fluorophenyl)allyl)-N-((2-chloropyridin-4-yl)methyl)-8-cyano-1,2,3,4-tetrahydro-5H-pyrido[4,3-b]indole-5-carboxamide] are 0.2 µM and 5.1 µM.
On to `N#Cc1ccc2c(c1)c1c(n2C(=O)NCc2ccnc(F)c2)CCN(C/C=C/c2cccc(Cl)c2F)C1` [Example 118, (E)-2-(3-(3-chloro-2-fluorophenyl)allyl)-8-cyano-N-((2-fluoropyridin-4-yl)methyl)-1,2,3,4-tetrahydro-5H-pyrido[4,3-b]indole-5-carboxamide], for which the minimal effective concentration in assay [1] is 1.8 µM; in assay [2], 5.7 µM.
For the molecule `O=C(NCc1ccnc(Cl)c1)n1c2c(c3cc(OC(F)(F)F)ccc31)CN(C/C=C/c1ccc(F)c(F)c1)CC2` [Example 389, (E)-N-((2-chloropyridin-4-yl)methyl)-2-(3-(3,4-difluorophenyl)allyl)-8-(trifluoromethoxy)-1,2,3,4-tetrahydro-5H-pyrido[4,3-b]indole-5-carboxamide], the minimal effective concentration in assay [1] turned out to be 0.5 µM; in assay [2] it was 10 µM.
The corresponding values for `N#Cc1ccc2c(c1)c1c(n2C(=O)NCc2ccnc(F)c2)CCN(C/C=C/c2cc(F)ccc2Br)C1` [Example 107, (E)-2-(3-(2-bromo-5-fluorophenyl)allyl)-8-cyano-N-((2-fluoropyridin-4-yl)methyl)-1,2,3,4-tetrahydro-5H-pyrido[4,3-b]indole-5-carboxamide] are 0.5 µM and 1.8 µM.
In the case of `O=C(NCc1ccnc(Cl)c1)n1c2c(c3ccc(OC(F)(F)F)cc31)CN(C/C=C/c1c(F)cc(Cl)cc1F)CC2` [Example 339, (E)-2-(3-(4-chloro-2,6-difluorophenyl)allyl)-N-((2-chloropyridin-4-yl)-methyl)-7-(trifluoromethoxy)-1,2,3,4-tetrahydro-5H-pyrido[4,3-b]indole-5-carboxamide], the minimal effective concentration in assay [1] and in assay [2] was 0.5 µM in each case.
